Source: ChEMBL document CHEMBL4118102 (J Med Chem, 2018)

Tests used:
[1] = target: Neuraminidase (Influenza A virus (A/Memphis/1/1971(H3N2)), UniProt P03471, E119V); design: species or system Influenza A virus (A/Fukui/45/2004(H3N2))
[2] = target: Neuraminidase (Influenza A virus (A/Memphis/1/1971(H3N2)), UniProt P03471, E119V); design: species or system Influenza A virus (A/Fukui/45/2004(H3N2)); remark: listed apart in the source

Compound	IC50 [1] [µM]	IC50 [2] [µM]
CC(=O)N[C@@H]1C[C@@H](F)[C@](F)(C(=O)O)O[C@H]1[C@H](O)[C@H](O)CO	3.67	3.71
CC(=O)N[C@@H]1[C@@H](O)[C@@H](F)[C@](F)(C(=O)O)O[C@H]1[C@H](O)CCO	4.4	25.1
